Like-named read-outs stand apart in the source and are kept apart here.
Experiments:
[1] = system: CTGF; assay: CTGF ELISA on cultured skin fibroblasts; type: cell-based, human; conditions: scleroderma fibroblasts
From the text: 4 mm punch skin biopsies were taken from the forearms of healthy volunteers and from patients with active diffuse scleroderma. Fibroblasts from these biopsies were subcultured to passage 6 in Dulbecco's modified eagle medium with 10% fetal calf serum and Pen Strep solution and grown to confluence. Twenty-four hours before assay, the fibroblasts were switched to serum free media with exchange of media every eight (8) hours. Upon switching to serum free medium (L-ascorbic acid phosphate magnesium salt n-hydrate) (C6H6O9P) 3/2 Mg was added at a final concentration of 30 μg/ml. The following protocol was used for the CTGF ELISA: 1. Plate antigen on Nunc immuno plase Maxisorp surface (catalog number 442402). 2. CTGF standard curve by two fold serial dilution in 6 triplicates (see Table 1, below). 3. Add 50 μl of sample to each well. 4. Leave wells for 2 hours at room temperature. 5. Wash wells 4 times with PBSa. 6. Add first layer antibody (pAB2 rabbit anti-human CTGF (0.8 mg/ml)( 1/1280)) diluted to 625 ng/ml in blocking buffer (1% BSA/0.05% tween20/PBS). 7. Add 50 μl to each well and leave at room temperature for one hour. 8. Wash wells five times with PBS. 9. Add second layer antibody donkey anti-rabbit IgG, HRP linked whole antibody (Amersham Life Sciences, Catalog No. NA 934 diluted 1/3200 in block buffer). 10. […] Stop reaction with 50 μl per well of 1M H2SO4 and read OD at 450 nm.

[2] = system: CTGF promoter; assay: CTGF promoter/luciferase transfection assay in normal human fibroblasts; type: cell-based; conditions: measured over a twenty-four hour period
Protocol: Normal human fibroblasts were grown to 80% confluence in a 6 well plate. 1 μg of DNA (CTGF promoter/luciferase) was added with 3 μl of FuGene 6 transfection reagent (Boehringer Mannheim 1814443); wherein the FuGene 6 was added dropwise to serum free culture medium and left at room temperature for five minutes and added to 1 µg of DNA in a separate tube for fifteen minutes. The DNA/FuGene 6 solution was then added dropwise to the cell culture by spreading around each well and swirling the flasks. The cell culture was returned to an incubator and the cells were grown again to confluence, approximately 36 hours. The cells were then switched to a serum free medium with ascorbate and left overnight. The cells were then treated for 24 hours as follows: control; Iloprost 1000 pg/ml; TGF-β 20 ng/ml; and TGF-β 20 ng/ml+Iloprost 1000 pg/ml.
After 24 hours the cells were lysed with Promega reporter lysis buffer (E 397A) at room temperature, 400 μl per […] and left for 15 minutes at room temperature. A 50 μl sample of the lysate was drawn and 100 μl of luciferase assay reagent (Promega E 148A) was added. Chemiluminensence was read using a plate reader program ARQ.1PT software micro P1.00.

[3] = system: CTGF RNA; assay: Northern blot for CTGF RNA; type: cell-based; conditions: cells treated with TGF-β and iloprost
Protocol: Cultured cells are grown to confluence on 100 mm plates. The cells were then serum starved with ascorbate for 24 hours, after which conditioned medium with TGF-β and Iloprost was added. The cells were then lysed with TRIzol (Gibco catalog no. 15596-018) wherein 1 ml per plate of the TRIzol was added and the plate was left at room temperature for ten minutes. 200 μl of chloroform was then added and the cells were vortexed for 20 seconds. The cells were then left alone for 5 minutes at room temperature and then centrifuged in a microcentrifuge tube for 10 minutes at maximum speed at 4° C. The upper layer was then removed (layer containing RNA) and then mixed with an equal volume of isopropanol. The mixture was then centrifuged for 10 minutes to form a pellet of RNA. 0.5 ml of 70% ethanol in RNAse free purified water was then added to the pellet. The ethanol was then tipped off and the pellet was left to dry. After five minutes, the pellet was resuspended in 20 μl of RNAse free water and kept on ice. To assay the RNA using a photospectometer, a sample of the RNA was diluted 1/500 (volume 1 ml) and read at OD 260 nm (to measure RNA) and 280 nm (to measure protein). RNA concentration was calculated in terms of μg/μl=(OD260×40×dilution)/1000. […]

[4] = system: Raynaud's phenomena; conditions: patients; cited from earlier work
[5] = system: renal interlobar and cortical arteries; conditions: scleroderma patients, iloprost infusions; cited from earlier work
[6] = system: platelet thrombus formation; conditions: animals with thrombin induced thrombosis; cited from earlier work
[7] = system: scleroderma fibroblasts; assay: ELISA for collagen (N propeptide of Type I collagen α chain) in cultured skin fibroblasts; type: cell-based, human
From the text: 4 mm punch skin biopsies were taken from the forearms of healthy volunteers and from patients with active diffuse scleroderma. Fibroblasts from these biopsies were subcultured to passage 6 in Dulbecco's modified eagle medium with 10% fetal calf serum and Pen Strep solution and grown to confluence. Twenty-four hours before assay, the fibroblasts were switched to serum free media with exchange of media every eight (8) hours. Upon switching to serum free medium (L-ascorbic acid phosphate magnesium salt n-hydrate) (C6H6O9P) 3/2 Mg was added at a final concentration of 30 μg/ml. The supernatant fluid from the above described culture was diluted 1/100 in 0.1 M NaHCO3 and 100 μl of said diluted culture was added to each well of a 96 well maxisorp plate. The plate was then left at room temperature for two hours on a plate shaker. The plate was then washed once in PBS. 200 μl of 2% BSA in PBS was then added and the plate was left for two hours to block non-specific binding. The plate was then washed four times in PBS and first layer antibody, anti-N-procollagen I rabbit polyclonal, diluted 1/2000 in 1% BSA PBS, was added at 100 μl/well. The plate was left for two (2) hours at room temperature and then washed four times in PBS. A second layer antibody, HRP labeled goat anti-rabbit IgG 1/2000, was then added and left for two hours. […] The plate was then read on a multiwell analyser.

[8] = system: metastasis; conditions: several different animal models; cited from earlier work

| SMILES | CTGF production [1] | CTGF production ([1]; listed as iloprost) | time of most pronounced inhibitory effect on CTGF production [2] | TGF-β induced synthesis of CTGF RNA [3] | TGF-β induced synthesis of CTGF RNA ([3]; listed as iloprost) | safety and efficacy in Raynaud's phenomena [4] | resistive index of the renal interlobar and cortical arteries [5] | platelet thrombus formation [6] | excessive production of collagen [7] | excessive production of collagen ([7]; listed as iloprost) | inhibition of metastasis [8] |
| --- | --- | --- | --- | --- | --- | --- | --- | --- | --- | --- | --- |
| CC#CCC(C)[C@H](O)/C=C/[C@@H]1[C@H]2C/C(=C/CCCC(=O)O)C[C@H]2C[C@H]1O (stereo partly drawn) [Iloprost, 5-(E)-(1S,5S,6R)-7-hydroxy-6[(E)-(3S,4RS)-3-hydroxy-4-methyl-1-octen-6-inyl]bicyclo[3.3.0]octen-3-ylidene pentanoic acid] | decrease in CTGF production | capable of inhibiting collagen production and CTGF production | most pronounced between hour 1 and hour 3 | inhibit CTGF production | blocked | safe and effective therapy | reduction of the resistive index | prevent platelet thrombus formation | inhibited | capable of inhibiting collagen production | – |
| CCC#CC[C@H](C)[C@H](O)C#C[C@@H]1[C@H]2C/C(=C/COCC(=O)O)C[C@H]2C[C@H]1O [cicaprost] | – | – | – | – | – | – | – | – | – | – | effectively inhibit metastasis |
| CCC#CC[C@H](C)[C@H](O)C#C[C@@H]1[C@H]2C/C(=C/COCCCC(=O)O)C[C@H]2C[C@H]1O [eptaloprost] | – | – | – | – | – | – | – | – | – | – | antimetastically acting agents |

Reference: US20020028847A1, “Method for treatment of fibrosis related diseases by the administration of prostacyclin derivatives” (Fibrogen, Inc., priority 1998, published 2002)
